Laboratory results reported in patent publication US20020035243A1, “Transport system conjugates” (priority 1998, published 2002).
Numbered stars: 1 amine (or outer) side, 2 acyl side, 3 side chain; on linkers, the order of the positions; unused ones are H or OH. Ends that are not written are not given here. Ethylenediamine = C(CN[*:2])N[*:1]

How the values were obtained:
[1] = tested on: Cloudman S91 melanoma cells; assay: Melanin formation in melanoma cells with and without α-MSH (indirect measure of TMP penetration); type: cell-based; conditions: for OD450 nm (melanin content of lysate): 5 days
Description: Cloudman S91 melanoma cells (ATCC CCL-53.1) are cultivated to confluence in DMEM+10% FCS in 24-well culture dishes. The S91 cells (0.5 ml per culture) are incubated for 5 days with and without TMP and with 15 nM α-MSH and then harvested. The TMP/TMP-L is added at least 2 hours before the α-MSH. For determination of the melanin, the medium is discarded and the adhering cells are washed 1× with PBS. The cells are then lysed with 0.1 ml of 0.2 M NaOH and the melanin content of the lysate is measured at 450 nm. The cultures of the experimental series are made up in duplicate, the 2nd batch being used to determine the cell count by the MTT test (Mosmann T., J. of Immun. Methods 1983, 65, 55-63). The cell count indicates growth inhibiting effects and the melanin content is given relative to the cell count (OD450 nm/10^6 cells).

[2] = tested on: HaCaT cells; assay: Penetration of carrier-conjugated peptides into keratinocytes; fluorescein-streptavidin staining, confocal microscopy; type: cell-based; conditions: 4 hours incubation, 25 μM
Description: Approx. 5×10^5 HaCaT cells (a gift from Dr. N. E. Fusenig, Deutsches Krebsforschungszentrum Heidelberg) are inoculated into 60 mm culture dishes from a confluent culture (DMEM+5% FCS) and allowed to grow for about 12 hours. The cell cultures are incubated for 4 hours with 25 μM Ac-Leu-Gly-Asp[NH(CH2)5—NH—CO-biotin]-Lys(ε-D,L-6,8-dithiooctanamide)-NH—CH2—CH2—NH-octanoylamide and the cells are washed (2× with FCS-free DMEM) and fixed for 5 min at −20° C. with EtOH/acetic acid (95/5). They are washed three times with PBS and then bound to fluorescein-labelled streptavidin (1000×diluted in PBS+10% FCS). Prior to microscopy the cells were washed a further three times with PBS and dried. Photographs were taken with a confocal scanning laser microscope (Sarastro 2000, Molecular Dynamics) at an excitation wavelength of 488 nm using a 510 nm emission filter.

[3] = tested on: smooth muscle cells; assay: Penetration of carrier-conjugated peptides into smooth muscle cells; immunofluorescence of α-SM-actin polymerization; type: cell-based, Wistar rats; conditions: 1 mg/ml in cell culture solution, 1 hour after treatment
Description: Smooth muscle cells are isolated by enzymatic cleavage from the thoracic aorta of 6-week-old Wistar rats. 10,000 cells are placed on 60 mm Petri dishes and allowed to grow for 5-6 h in DME and 10% foetal calf serum. The cells are incubated with the peptides for approximately 1 hour in the incubator, then washed twice with PBS (0.5 mmol CaCl2, 3 mmol MgCl2), then fixed with 3% parafornaldehyde for 10 min and permeabilized with 0.1% Triton X-100 in PBS for 1 minute, double-immunofluorescent stained for α-SM-actin and total actin with mouse anti-α-SM 1 and rabbit polyclonal anti-actin antibody, respectively, followed by staining with sheep anti-mouse IgG conjugated with tetramethylrhodamine B isothiocyanate or fluorescent isothiocyanate and sheep anti-rabbit IgG conjugated with fluorescent isothiocyanate, respectively. The preparations are washed with PBS and fixed in polyvinyl alcohol buffer. Photographs are taken with a Zeiss Axiophot light microscope using a fluorescein or rhodamine filter:
FIGS. 1-6 show the immunofluorescence photographs of the inhibition of polymerization 1 hour after treatment of the cell cultures with the substances, the concentration of the cell culture solution being 1 mg/ml.

[4] = tested on: α-smooth muscle actin; conditions: microinjected into cells; cited from earlier work
[5] = tested on: smooth muscle cells; assay: Penetration of carrier-conjugated peptides into smooth muscle cells; immunofluorescence of α-SM-actin polymerization; type: cell-based, Wistar rats; conditions: c=0.5 mg, 1 mg and 2 mg per ml of cell culture solution
[6] = S91, 30 nM substance plus 15 nM α-MSH
[7] = S91, 30 nM substance, without α-MSH, untreated control about the same

| Compound | fluorescein staining (left picture) [3] | penetration of the peptide into the cell [3] | polymerization of the smooth α-actin filaments [3] | rhodamine staining of the smooth muscle α-actin polymers (right picture) [3] | also measured |
| --- | --- | --- | --- | --- | --- |
| H-Glu-Asp-Tyr-His-Ser-Leu-Tyr-Asn-Ser-His-Leu-Lys(ε-D,L-6,8-dithiooctanamide)-NH—CH2CH2—NH-octanylamide (H-EDYHSLYNSHLK-{Ethylenediamine-octanoyl}; not fully specified (residue 12)) [transporter-bound TMP] | – | – | – | – | OD450 nm (melanin content of lysate) [1, 6]: approximately 0.2; OD450 nm (melanin content of lysate) [1, 7]: approximately 0.2; effect on melanin formation induced by α-MSH ([1]; S91 treated with α-MSH combined with transporter-bound TMP): prevention of melanin formation |
| Ac-Leu-Gly-Asp[NH(CH2)5—NH—CO-biotin]-OH [Ac-Leu-Gly-Asp-OH] | – | – | – | – | fluorescent staining of cells [2]: no fluorescent staining |
| CCCCCCCC(=O)NNCCNC(=O)C(N)CCCCNC(=O)CCCCC1CCSS1 [free transporter, H-Lys(ε-D,L-6,8-dithiooctanamide)-NH—CH2CH2—NH—NH-octanoylamide] | – | – | – | – | OD450 nm (melanin content of lysate) [1, 6]: approximately 0.7; OD450 nm (melanin content of lysate) [1, 7]: approximately 0.2 |
| Ac-Leu-Gly-Asp[NH(CH2)5—NH—CO-biotin]-Lys(ε-D,L-6,8-dithio-octanamide)-NH—CH2CH2—NH-octanoylamide [Batch d] | – | – | – | – | fluorescent staining of cells [2]: attractive fluorescent staining |
| EDYHSLYNSHL [free TMP, reference compound] | – | – | – | – | OD450 nm (melanin content of lysate) [1, 6]: approximately 0.7; OD450 nm (melanin content of lysate) [1, 7]: approximately 0.2 |
| Ac-Glu-Glu-Glu-Asp-Lys(ε-D,L-6,8-dithiooctanoylamide)-NH2 (Ac-EEEDK(D,L‑6,8‑dithiooctanoyl)-NH2) | partial | penetration | partially developed | partial | – |
| Ac-Glu-Glu-Glu-Asp-NH2 (Ac-EEED-NH2) [reference compound] | strong | no penetration | completely developed | strong | polymerization of α-smooth muscle actin after microinjection in excess [4]: inhibits |
| Ac-Glu-Glu-Glu-Asp-Lys-NH—CH2—CH2—NH—C═O—(CH2)6—CH3 (Ac-EEEDK-{Ethylenediamine-octanoyl}) [reference compound] | strong | no penetration | completely developed | strong | – |
| Ac-Glu-Glu-Glu-Asp-Lys-NH—CH2—CH2—NH-hexadecanoylamide (Ac-EEEDK-{Ethylenediamine-hexadecanoyl}) [reference compound] | strong | no penetration | completely developed | strong | – |
| Ac-Glu-Glu-Glu-Asp-Lys(ε-D,L-6,8-dithiooctanoylamide)-NH—CH2—CH2—NH—C═O—(CH2)6—CH3 (Ac-EEEDK(D,L‑6,8‑dithiooctanoyl)-{Ethylenediamine-octanoyl}) | slight | best penetration | very poorly developed | slight | dose-effect relationship [5]: qualitative dose-effect relationship |
| α-MSH: stimulant of melanin formation added to S91 cells at 15 nM (Ac-SYSMEHFRWGKPV-NH2; ends and bridges not checked; UniProt P01189 138-150, looked up) [reference compound] | – | – | – | – | OD450 nm (melanin content of lysate) ([1]; S91, 15 nM α-MSH alone): approximately 0.7 |
| Ac-Glu-Glu-Glu-Asp-Lys(E-D,L-6,8-dithiooctanoylamide)-NH—CH2—CH2—NH-hexadecanoylamide (Ac-EEEDK(D,L‑6,8‑dithiooctanoyl)-{Ethylenediamine-hexadecanoyl}) | slight | good penetration | very poorly developed | slight | – |
